The results in this text go back to BindingDB's records for patent WO2022104348 (Janssen Pharmaceutica, 2022).

Broadly, the IC50 is the point on the concentration scale where inhibition reaches its midpoint.

SMILES strings stand for the structures.

Sequence of Mitogen-activated protein kinase kinase kinase 14 (Q99558 whole entry): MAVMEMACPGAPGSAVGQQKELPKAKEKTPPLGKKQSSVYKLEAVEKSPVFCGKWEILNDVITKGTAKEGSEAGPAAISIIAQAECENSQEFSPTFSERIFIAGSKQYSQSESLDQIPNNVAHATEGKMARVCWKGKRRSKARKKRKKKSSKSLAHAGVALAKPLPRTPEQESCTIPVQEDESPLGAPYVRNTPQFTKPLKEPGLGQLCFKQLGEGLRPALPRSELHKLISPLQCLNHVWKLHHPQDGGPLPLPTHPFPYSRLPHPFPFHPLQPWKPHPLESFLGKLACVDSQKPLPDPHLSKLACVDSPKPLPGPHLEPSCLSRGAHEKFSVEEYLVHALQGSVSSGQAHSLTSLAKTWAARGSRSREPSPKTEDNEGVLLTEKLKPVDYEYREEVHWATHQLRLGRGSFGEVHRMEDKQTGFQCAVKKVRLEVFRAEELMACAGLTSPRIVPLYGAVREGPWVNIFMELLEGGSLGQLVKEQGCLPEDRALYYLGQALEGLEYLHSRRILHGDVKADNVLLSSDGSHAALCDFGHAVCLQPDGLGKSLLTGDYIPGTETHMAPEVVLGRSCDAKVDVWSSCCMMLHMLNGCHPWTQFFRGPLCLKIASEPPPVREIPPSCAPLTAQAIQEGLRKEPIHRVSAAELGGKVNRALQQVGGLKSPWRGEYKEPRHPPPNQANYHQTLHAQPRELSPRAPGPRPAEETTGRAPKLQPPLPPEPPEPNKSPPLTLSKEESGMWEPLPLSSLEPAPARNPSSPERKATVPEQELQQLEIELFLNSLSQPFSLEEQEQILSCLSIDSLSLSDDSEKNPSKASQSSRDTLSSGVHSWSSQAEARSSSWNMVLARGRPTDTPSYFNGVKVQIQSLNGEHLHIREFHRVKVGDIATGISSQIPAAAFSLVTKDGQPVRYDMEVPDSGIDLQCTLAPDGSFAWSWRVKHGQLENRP

For this test, the target named is Mitogen-activated protein kinase kinase kinase 14 (Homo sapiens, UniProt Q99558). Description: Inhibition of auto-phosphorylation of recombinant human NF-kappaB-inducing kinase (NIK/MAP3K14) activity. The protocol:
NIK/MAP3K14 auto-phosphorylation activity was measured using the AlphaScreen (ascreen) format (Perkin Elmer). All compound6 tested were dissolved in dimethyl sulfoxide (DMSO) and further dilutions were made in assay buffer. The final DMSO concentration was 0.7% (v/v) in assays. The assay buffer was 50 mM Tris pH 7.5 containing 1 mM EGTA (ethylene glycol tetraacetic acid), 1 mM DTT (dithiothreitol), 0.1 mM NasVCO4, 5 mM MgCE, and 0.01 % Tween 20. The assays were carried out in 384 well Proxiplates (Perkin Elmer). The incubations consisted of the compound, […] Adenosine-5'-triphosphate (ATP), and 1 nM NIK/MAP3K14. Incubations were initiated by the addition of GST-tagged NIK/MAP3K14 enzyme, carried out for 2 h at 25 °C and terminated by addition of stop buffer containing anti-phospho-IKK Ser176/180 antibody. Protein A Acceptor and Glutathione-Donor bead6 were added before reading using an EnVision Multilabel Plate Reader (Perkin Elmer). The signal obtained in the wells was normalized using high (full enzyme activity, 0.7% DMSO) and low controls (no enzyme activity, 0.7% DMSO, no ATP). IC50 s were determined by fitting a sigmoidal curve to % inhibition of control versus Log compound concentration.
In the case of `CN1CC[C@@](O)(c2cccc(-c3coc(-c4c[nH]c5ncccc45)n3)c2)C1=O` [WO2022104348, Example 116], the IC50 was under 0.1 µM.
The value for `CN1CC[C@@](O)(c2cccc(-n3cnc(-c4c[nH]c5ncccc45)c3)c2)C1=O` [WO2022104348, Example 124] was over 0.5 µM; that for `CN1CC[C@@](O)(c2cccc(-c3csc(-c4n[nH]c5ncccc45)n3)c2)C1=O` [WO2022104348, Example 100] was over 0.5 µM; that for `CN1CC[C@@](O)(c2cccc(-c3csc(-c4c[nH]c5ncc(Cl)c(F)c45)n3)c2)C1=O` [WO2022104348, Example 95] was under 0.1 µM.
Turning to `O[C@]1(c2cccc(-c3csc(-c4c[nH]c5ncccc45)n3)c2)CCc2cccnc21` [WO2022104348, Example 1], the half-inhibitory concentration (IC50) is over 0.5 µM.
For `O[C@H]1C[C@@](O)(c2cccc(-c3csc(-c4c[nH]c5ncccc45)n3)c2)c2ncccc21` [WO2022104348, Example 103], the IC50 is over 0.5 µM.
Take `CN1CC[C@](O)(c2cccc(-c3csc(-c4c[nH]c5ncccc45)n3)c2)C1=O` [WO2022104348, Example 39]: the IC50 is over 0.5 µM.
Take `CN1CC[C@@](O)(c2cccc(-c3cc(-c4c[nH]c5ncccc45)co3)c2)C1=O` [WO2022104348, Example 115]: the IC50 is over 0.5 µM.
For `C[C@@](O)(c1cccc(-c2csc(-c3c[nH]c4ncccc34)n2)c1)c1ncc[nH]1` [WO2022104348, Example 80], the IC50 was over 0.5 µM.
Take `CN1CC[C@@](O)(c2cccc(-n3ncc(-c4c[nH]c5ncccc45)n3)c2)C1=O` [WO2022104348, Example 109]: the IC50 is under 0.1 µM.
For `O[C@H]1C[C@](O)(c2cccc(-c3csc(-c4c[nH]c5ncccc45)n3)c2)c2ncccc21` [WO2022104348, Example 102], the IC50 was over 0.5 µM.
Regarding `Cc1cc(-c2csc(-c3c[nH]c4nccnc34)n2)cc([C@]2(O)CCN(C)C2=O)c1` [WO2022104348, Example 68], the IC50 was under 0.1 µM.
For the molecule `C[C@]1(O)C[C@](O)(c2cccc(-c3csc(-c4c[nH]c5ncccc45)n3)c2)c2ncccc21` [WO2022104348, Example 105], the IC50 was over 0.5 µM.
With `CN1CC[C@@](O)(c2cccc(-n3ccc(-c4c[nH]c5ncccc45)n3)c2)C1=O` [WO2022104348, Example 122], the IC50 was under 0.1 µM.
With `CN1CC[C@@](O)(c2cccc(-c3csc(-c4c[nH]c5ncc(C(=O)O)cc45)n3)c2)C1=O` [WO2022104348, Example 51] the figure was under 0.1 µM; with `C[C@](O)(c1cccc(-c2csc(-c3c[nH]c4nccnc34)n2)c1)c1ncc[nH]1` [WO2022104348, Example 78], over 0.5 µM; with `CN1CC[C@@](O)(c2cccc(-c3cnc(-c4c[nH]c5ncccc45)n3C)c2)C1=O` [WO2022104348, Example 120], over 0.5 µM.
`CN1C(=O)[C@@](O)(c2cccc(-c3csc(-c4c[nH]c5ncccc45)n3)c2)c2ncccc21` [WO2022104348, Example 91]: the IC50 was over 0.5 µM.
Take `Cc1ccnc2[nH]cc(-c3nc(-c4cccc([C@]5(O)CCn6ccnc65)c4)cs3)c12` [WO2022104348, Example 87]: the IC50 was under 0.1 µM.
With `CN1CC[C@@](O)(c2cccc(-c3nc(-c4cc(N)nc5[nH]ccc45)cs3)c2)C1=O` [WO2022104348, Example 129] the figure was over 0.5 µM; with `CN1CC[C@@](O)(c2cccc(-c3coc(-c4c[nH]c5ncccc45)c3)c2)C1=O` [WO2022104348, Example 93], under 0.1 µM; with `CN1CC[C@@](O)(c2cccc(-c3nc(-c4c[nH]c5ncccc45)cs3)c2)C1=O` [WO2022104348, Example 8], under 0.1 µM.
For the molecule `N#Cc1cnc2[nH]cc(-c3nc(-c4cccc([C@]5(O)Cc6nccn6C5)c4)cs3)c2c1` [WO2022104348, Example 26], the IC50 was under 0.1 µM.
As to `CN1CC[C@](O)(c2cccc(-c3cnc(-c4c[nH]c5ncccc45)s3)c2)C1=O` [WO2022104348, Example 4], the IC50 is over 0.5 µM.
For `CN1C(=O)[C@](O)(c2cccc(-c3csc(-c4c[nH]c5ncccc45)n3)c2)c2ncccc21` [WO2022104348, Example 92], the IC50 is under 0.1 µM.
Turning to `O=C1N(CC(F)(F)F)CC[C@@]1(O)c1cccc(-c2csc(-c3c[nH]c4nccnc34)n2)c1` [WO2022104348, Example 44], the IC50 was over 0.5 µM.
Take `CN1CC[C@@](O)(c2cccc(-n3cnc(-c4c[nH]c5ncccc45)n3)c2)C1=O` [WO2022104348, Example 121]: the IC50 is under 0.1 µM.
With `O[C@@]1(c2cccc(-c3csc(-c4c[nH]c5ncccc45)n3)c2)COc2cccnc21` [WO2022104348, Example 85] the figure was over 0.5 µM; with `O[C@@]1(c2cccc(-c3csc(-c4c[nH]c5ncncc45)n3)c2)CCc2cccnc21` [WO2022104348, Example 5], under 0.1 µM; with `O=C1Nc2cccnc2[C@]1(O)c1cccc(-c2csc(-c3c[nH]c4ncccc34)n2)c1` [WO2022104348, Example 89], over 0.5 µM.
Take `O=C1N(CC(F)(F)F)CC[C@]1(O)c1cccc(-c2csc(-c3c[nH]c4nccnc34)n2)c1` [WO2022104348, Example 43]: the half-maximal inhibitory concentration (IC50) is over 0.5 µM.
As to `Cc1c(-c2c[nH]c3ncccc23)n[nH]c1-c1cccc([C@]2(O)CCN(C)C2=O)c1` [WO2022104348, Example 119], the half-inhibitory concentration (IC50) is over 0.5 µM.
The value for `Cc1ccc(-c2csc(-c3c[nH]c4nccnc34)n2)cc1[C@@]1(O)CCN(C)C1=O` [WO2022104348, Example 70] was over 0.5 µM; that for `O[C@@]1(c2cccc(-c3csc(-c4c[nH]c5ncccc45)n3)c2)CCc2scnc21` [WO2022104348, Example 32] was under 0.1 µM; that for `O[C@@]1(c2cccc(-c3csc(-c4c[nH]c5ncc(Cl)c(F)c45)n3)c2)CCn2ccnc21` [WO2022104348, Example 97] was under 0.1 µM.
The value for `C[C@@]1(O)C[C@@](O)(c2cccc(-c3csc(-c4c[nH]c5ncccc45)n3)c2)c2ncccc21` [WO2022104348, Example 106] was over 0.5 µM; that for `O[C@@]1(c2cccc(-c3csc(-c4c[nH]c5ncccc45)n3)c2)CCc2cccnc21` [WO2022104348, Example 2] was under 0.1 µM; that for `Cc1ccc([C@]2(O)CCN(C)C2=O)cc1-c1csc(-c2c[nH]c3nccnc23)n1` [WO2022104348, Example 67] was under 0.1 µM.
As for `O[C@]1(c2cccc(-c3csc(-c4c[nH]c5ncccc45)n3)c2)C=Cc2cccnc21` [WO2022104348, Example 34], the IC50 is over 0.5 µM.
In the case of `O[C@@]1(c2cccc(-c3csc(-c4c[nH]c5ncccc45)n3)c2)C=Cc2cccnc21` [WO2022104348, Example 33], the IC50 is under 0.1 µM.
On to `CN1CC[C@@](O)(c2cccc(-c3csc(-c4c[nH]c5ncncc45)n3)c2)C1=O` [WO2022104348, Example 53], for which the concentration for half-maximal inhibition (IC50) was under 0.1 µM.
The value for `CN1CC[C@@](O)(c2cccc(-c3ccc(-c4c[nH]c5ncccc45)o3)c2)C1=O` [WO2022104348, Example 114] was under 0.1 µM; that for `CC1(C)Cc2cccnc2[C@@]1(O)c1cccc(-c2csc(-c3c[nH]c4ncccc34)n2)c1` [WO2022104348, Example 35] was over 0.5 µM; that for `O=C1Nc2cccnc2[C@@]1(O)c1cccc(-c2csc(-c3c[nH]c4ncccc34)n2)c1` [WO2022104348, Example 90] was over 0.5 µM.
